Measurements: the supplement of paper PMC10307832

compound: CC1(COc2ccc3c(c2)ncn3-c2ccc3cccc(N4CCC(N)CC4)c3n2)COC1 [Crenolanib] + Cc1nc(NC(=O)N2CCC[C@H]2C(N)=O)sc1-c1ccnc(C(C)(C)C(F)(F)F)c1 [Alpelisib] (partner 2 µM); test: relative viability (nuclei count vs DMSO), 5 days (fraction); higher = more cells survive; conditions: first compound 0.01 µM
How it was run: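 Five library-drug doses in √10 steps were combined with a fixed anchor-drug dose, or a single drug was given alone, by pin tool to lung cancer cell lines in 1536-well plates the day after seeding. Nuclei were stained and counted after 5 days. Relative viability is the nuclei count in treated wells over that in vehicle wells, taken as the median of duplicate plates.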

Cell Line	relative viability
NCI-H838	1.02
NCI-H1651	0.89
EBC-1	0.89
NCI-H1734	0.707
NCI-H2009	1.12
PC-14	1.01
LCLC-97TM1	0.257
NCI-H596	0.435
NCI-H2228	0.842
EMC-BAC-2	0.747
NCI-H2087	0.86
Calu-6	1.01
HCC-44	0.836
NCI-H1703	0.33
NCI-H647	1.16
LK-2	0.637
NCI-H2126	0.8
SK-MES-1	0.849
HARA	0.877

Cell Line	relative viability
COR-L23	0.854
COR-L 105	1.02
LC-2-ad	0.945
LU99A	0.565
NCI-H2170	0.856
NCI-H3122	0.768
IA-LM	0.786
HCC-78	0.357
A549	0.808
LXF-289	1.02
BEN	0.917
HCC-15	0.873
HCC-827	1.04
NCI-H441	0.708
LOU-NH91	0.784
NCI-H1299	1.04
NCI-H1563	0.99
HCC-366	0.484
ABC-1	1.06

same assay, conditions: first compound 0.03162 µM

Cell Line	relative viability
NCI-H838	0.991
NCI-H1651	0.903
EBC-1	0.78
NCI-H1734	0.664
NCI-H2009	1.19
EPLC-272H	0.879
PC-14	0.969
LCLC-97TM1	0.287
NCI-H596	0.531
NCI-H2228	0.863
EMC-BAC-2	0.758
NCI-H2087	1.11
Calu-6	0.92
HCC-44	0.857
NCI-H1703	0.378
NCI-H647	1.28
LK-2	0.924
NCI-H2126	0.752
SK-MES-1	0.972

Cell Line	relative viability
HARA	0.818
COR-L23	0.78
COR-L 105	1.25
LC-2-ad	0.886
LU99A	0.503
NCI-H2170	0.815
NCI-H3122	0.81
IA-LM	0.819
HCC-78	0.312
A549	0.795
LXF-289	1.04
BEN	0.895
HCC-15	0.829
HCC-827	1.01
LOU-NH91	0.755
NCI-H1299	1.06
NCI-H1563	0.924
HCC-366	0.655
ABC-1	1.13

same assay, conditions: first compound 0.1 µM

Cell Line	relative viability
NCI-H838	0.968
NCI-H1651	0.893
EBC-1	0.868
NCI-H1734	0.653
NCI-H2009	1.06
EPLC-272H	0.821
PC-14	0.858
LCLC-97TM1	0.326
NCI-H596	0.494
NCI-H2228	0.712
EMC-BAC-2	0.68
NCI-H2087	0.942
Calu-6	1
HCC-44	0.718
NCI-H1703	0.242
NCI-H647	1.04
LK-2	1.1
NCI-H2126	0.761
SK-MES-1	0.866
HARA	0.712

Cell Line	relative viability
COR-L23	0.602
COR-L 105	0.811
LC-2-ad	0.815
LU99A	0.49
NCI-H2170	0.814
NCI-H3122	0.827
IA-LM	0.75
HCC-78	0.348
A549	0.743
LXF-289	1.01
BEN	0.904
HCC-15	0.888
HCC-827	0.916
NCI-H441	0.888
LOU-NH91	0.635
NCI-H1299	0.982
NCI-H1563	1.1
HCC-366	0.351
ABC-1	0.772

same assay, conditions: first compound 0.3162 µM

Cell Line	relative viability
NCI-H838	1.22
NCI-H1651	0.982
EBC-1	0.798
NCI-H1734	0.855
NCI-H2009	1.18
EPLC-272H	1.03
PC-14	1.04
LCLC-97TM1	0.287
NCI-H596	0.478
NCI-H2228	0.867
EMC-BAC-2	0.881
NCI-H2087	1.02
Calu-6	1.17
HCC-44	0.932
NCI-H1703	0.174
NCI-H647	1.21
LK-2	0.956
NCI-H2126	0.787
SK-MES-1	0.916
HARA	0.793

Cell Line	relative viability
COR-L23	0.966
COR-L 105	1.03
LC-2-ad	1.03
LU99A	0.526
NCI-H2170	0.951
NCI-H3122	0.78
IA-LM	0.898
HCC-78	0.402
A549	0.798
LXF-289	1.09
BEN	0.972
HCC-15	0.814
HCC-827	1.03
NCI-H441	0.732
LOU-NH91	0.641
NCI-H1299	1.06
NCI-H1563	1.07
HCC-366	0.428
ABC-1	0.999

same assay, conditions: first compound 1 µM

Cell Line	relative viability
NCI-H838	0.846
NCI-H1651	0.867
EBC-1	0.845
